Measured values published in US20230357179A1, “RAF KINASE INHIBITORS AND METHODS OF USE THEREOF” (Deciphera Pharmaceuticals, LLC, priority 2021, published 2023).

Key:
[1] = molecular target: T1, B-Raf kinase (Homo sapiens, UniProt P15056); experiment: Biochemical assay for B-Raf.1 (coupled pyruvate kinase/lactate dehydrogenase); conditions: read-out: BRAF.1 IC50
T1 construct: GST (N); purchased Sigma
In short: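 Reaction rates over the 4–5 h window of a continuous 6 h, 30 °C read were converted to percent inhibition and fitted for IC50. B-Raf (0.13 nM) phosphorylated 30.1 nM MEK with 1 mM ATP; ADP coupled via PK/LDH to NADH loss at 340 nm, 1% DMSO final.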

[2] = molecular target: T2, C-Raf kinase (Homo sapiens, UniProt P04049, Y340D/Y341D); experiment: Biochemical assay for C-Raf.1 (coupled pyruvate kinase/lactate dehydrogenase); conditions: read-out: CRAF.1 IC50
T2 construct: Y340D,; GST (N); purchased Sigma
In short: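 NADH depletion at 340 nm monitored continuously for 6 h at 30° C, with rates taken over 4–5 h. The coupled pyruvate kinase/lactate dehydrogenase reaction used 1 mM ATP, 30.1 nM MEK substrate and 0.43 nM kinase at pH 7.5. IC50 was fitted sigmoidally from percent inhibition of serially diluted compound.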

[3] = tested on: H2405 cells; experiment: H2405 cell proliferation assay (1), resazurin, 96-well; assay type: cell-based; conditions: Homo sapiens, NCI-H2405, inhibition of cell proliferation
In short: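 This is a resazurin viability readout (excitation 540 nm, emission 600 nm) taken 5-6 h after adding 440 μM resazurin solution, giving IC50 values.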

[4] = molecular target: T3, B-Raf (V600E) kinase (Homo sapiens, UniProt P15056, V600E); experiment: Biochemical assay for B-Raf (V600E).1 (coupled pyruvate kinase/lactate dehydrogenase); conditions: read-out: BRAF V600E.1 IC50
T3 construct: B-Raf (V600E) residues 416-766 with a; GST (N); purchased SignalChem
In short: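 IC50 came from four-parameter sigmoidal fits of percent inhibition, using reaction rates over 3-4 h. Continuous A340 reading (6 h, 30 °C) of a pyruvate kinase/lactate dehydrogenase-coupled reaction: B-Raf V600E 0.03 nM, MEK 30.1 nM, ATP 1 mM, Tris pH 7.5, 1% DMSO.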

T1 sequence (P15056 416-766): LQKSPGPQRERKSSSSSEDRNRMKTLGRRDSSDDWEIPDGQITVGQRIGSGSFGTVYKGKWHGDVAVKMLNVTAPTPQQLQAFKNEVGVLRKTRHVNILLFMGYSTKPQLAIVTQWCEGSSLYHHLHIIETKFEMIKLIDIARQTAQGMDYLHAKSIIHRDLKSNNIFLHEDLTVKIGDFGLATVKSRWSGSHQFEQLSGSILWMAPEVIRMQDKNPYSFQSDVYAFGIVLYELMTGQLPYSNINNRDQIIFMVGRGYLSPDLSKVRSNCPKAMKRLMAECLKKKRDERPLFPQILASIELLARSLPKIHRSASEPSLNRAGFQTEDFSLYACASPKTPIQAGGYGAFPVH
T2 sequence (P04049 307-648 Y340D/Y341D): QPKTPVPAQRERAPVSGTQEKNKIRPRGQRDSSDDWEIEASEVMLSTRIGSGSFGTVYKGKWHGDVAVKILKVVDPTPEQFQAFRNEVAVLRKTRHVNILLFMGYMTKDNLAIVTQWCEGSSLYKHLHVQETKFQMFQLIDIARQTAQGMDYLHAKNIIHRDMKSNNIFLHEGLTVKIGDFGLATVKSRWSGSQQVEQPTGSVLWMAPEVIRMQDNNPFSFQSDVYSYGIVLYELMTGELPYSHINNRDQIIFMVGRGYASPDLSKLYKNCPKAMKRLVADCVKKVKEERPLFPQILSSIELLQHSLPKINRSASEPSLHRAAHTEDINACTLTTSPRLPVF
T3 sequence (P15056 416-766 V600E): as the sequence (P15056 416-766) above, with V185E counted along it

SMILES | IC50 [1] | IC50 [2] | IC50 [3] | IC50 [4]
COC(=O)Nc1cc(-c2cc(-c3cc(NC(=O)NCCC4(C)CC4)c(F)cc3C)cc(OCCO)n2)ccn1 [Example 77] | ≤ 100 nM | ≤ 100 nM | 100 to 500 nM | ≤ 100 nM
COC(=O)Nc1cc(-c2cncc(-c3cc(NC(=O)N4CCCCC4)ccc3C)c2)ccn1 [Example 208] | > 1000 nM | 100 to 500 nM | 500 to 1000 nM | > 1000 nM
Cc1ncc(NC(=O)NCCC2(C)CC2)cc1-c1nccc(-c2ccnc(NC(=O)C3CC3)c2)n1 [Example 81] | ≤ 100 nM | ≤ 100 nM | 100 to 500 nM | ≤ 100 nM
CC(=O)Nc1cc(-c2cc(-c3cc(NC(=O)NCCC4(C)CC4)c(F)cc3C)cc(NCCO)n2)ccn1 [Example 175] | ≤ 100 nM | ≤ 100 nM | ≤ 100 nM | ≤ 100 nM
Cc1ccc(NC(=O)N2CCC(F)(F)C2)cc1-c1cncc(-c2cc(NC(=O)C3CC3)ncn2)c1 [Example 209] | ≤ 100 nM | ≤ 100 nM | 1000 to 10000 nM | 100 to 500 nM
CC(=O)Nc1cc(-c2cc(-c3cc(NC(=O)NCCC4(C)CC4)c(F)cc3C)cc(OCCO)n2)ccn1 [Example 33] | ≤ 100 nM | ≤ 100 nM | ≤ 100 nM | ≤ 100 nM
COC(=O)Nc1cc(-c2cc(-c3cc(NC(=O)NCCC4(C)CC4)c(F)cc3F)cc(OCCO)n2)ccn1 [Example 188] | ≤ 100 nM | ≤ 100 nM | 500 to 1000 nM | ≤ 100 nM
Cc1cc(F)c(NC(=O)NCCC2(C(F)(F)F)CC2)cc1-c1cc(OCCO)nc(C2CCOCC2)c1 [Example 24] | ≤ 100 nM | ≤ 100 nM | 100 to 500 nM | ≤ 100 nM
Cc1cc(F)c(NC(=O)NCCC(C)(C)C#N)cc1-c1cccc(-c2ccnc(NC(=O)C3CC3)c2)c1 [Example 66] | ≤ 100 nM | ≤ 100 nM | 1000 to 10000 nM | ≤ 100 nM
COC(=O)Nc1cc(-c2cncc(-c3cc(NC(=O)N4CCCCCC4)ccc3C)c2)ccn1 [Example 202] | 500 to 1000 nM | 100 to 500 nM | 1000 to 10000 nM | 100 to 500 nM
Cc1ccc(NC(=O)Nc2cn(C)nc2C(F)(F)F)cc1-c1cc(OCCO)nc(N2CCOCC2)c1 [Example 42] | > 1000 nM | > 1000 nM | 1000 to 10000 nM | ≤ 100 nM
Cc1cc(F)c(NC(=O)NCCC2(C)CC2)cc1-c1cc(OCCO)nc(-c2ccnc(NC(=O)C3CC3)c2)c1 [Example 76] | ≤ 100 nM | ≤ 100 nM | ≤ 100 nM | ≤ 100 nM
CC(=O)Nc1cc(-c2cc(-c3cc(NC(=O)N[C@H]4C[C@](C)(F)C4)ccc3C)cc(OCCO)n2)ccn1 [Example 49] | ≤ 100 nM | ≤ 100 nM | 100 to 500 nM | ≤ 100 nM
COC(C)(C)CCNC(=O)Nc1cc(-c2nccc(-c3ccnc(NC(=O)C4CC4)c3)n2)c(C)cc1F [Example 83] | ≤ 100 nM | ≤ 100 nM | 100 to 500 nM | ≤ 100 nM
Cc1ccc(NC(=O)Nc2cnc(C(F)(F)F)s2)cc1-c1cc(OCCO)nc(N2CCOCC2)c1 [Example 43] | 100 to 500 nM | ≤ 100 nM | 100 to 500 nM | ≤ 100 nM
Cc1cc(F)c(NC(=O)NCCC(C)(C)C#N)cc1-c1cc(N2CCOCC2)nc(N2CCOCC2)c1 [Example 22] | 100 to 500 nM | ≤ 100 nM | 1000 to 10000 nM | ≤ 100 nM
Cc1cc(F)c(NC(=O)NCCC(C)(C)C#N)cc1-c1cccc(-c2cc(NC(=O)C3CC3)ncn2)c1 [Example 67] | ≤ 100 nM | ≤ 100 nM | 100 to 500 nM | ≤ 100 nM
Cc1cc(F)c(NC(=O)NCCC2(C(F)(F)F)CC2)cc1-c1cc(N2CCOCC2)nc(N2CCOCC2)c1 [Example 23] | ≤ 100 nM | ≤ 100 nM | 100 to 500 nM | ≤ 100 nM
COC1(CCNC(=O)Nc2cnc(C)c(-c3cccc(-c4cc(NC(=O)C5CC5)ncn4)c3)c2)CC1 [Example 84] | ≤ 100 nM | ≤ 100 nM | 1000 to 10000 nM | ≤ 100 nM

Further lines, results first:

IC50 [1] | IC50 [2] | IC50 [3] | IC50 [4] | SMILES
500 to 1000 nM | 100 to 500 nM | 100 to 500 nM | 100 to 500 nM | CNC(=O)c1cc(-c2cncc(-c3cc(NC(=O)N4CC[C@H](C(F)(F)F)C4)c(F)cc3C)c2)ccn1 [Example 214]
> 1000 nM | > 1000 nM | 1000 to 10000 nM | 100 to 500 nM | CNC(=O)c1cc(-c2cnnc(-c3cc(NC(=O)N4CC[C@H](OC)C4)ccc3C)c2)ccn1 [Example 177]
≤ 100 nM | ≤ 100 nM | 100 to 500 nM | ≤ 100 nM | Cc1ccc(NC(=O)N2CC[C@H](C(F)(F)F)C2)cc1-c1cncc(-c2cc(NC(=O)C3CC3)ncn2)c1 [Example 195]
≤ 100 nM | ≤ 100 nM | 100 to 500 nM | ≤ 100 nM | COC(=O)Nc1cc(-c2cc(-c3cc(NC(=O)N4CCC(C(F)(F)F)C4)ccc3C)cc(OCCO)n2)ccn1 (stereo not shown) [Example 222]
≤ 100 nM | ≤ 100 nM | 100 to 500 nM | ≤ 100 nM | Cc1ccc(NC(=O)N2CC[C@@H](C(F)(F)F)C2)cc1-c1cncc(-c2cc(NC(=O)C3CC3)ncn2)c1 [Example 210]
> 1000 nM | 500 to 1000 nM | 1000 to 10000 nM | 500 to 1000 nM | COC(=O)Nc1cc(-c2cncc(-c3cc(NC(=O)N4CCCC4)ccc3C)c2)ccn1 [Example 213]
≤ 100 nM | 100 to 500 nM | 1000 to 10000 nM | > 1000 nM | COC(=O)Nc1cc(-c2cc(-c3cc(NC(=O)N4CC[C@H](C(F)(F)F)C4)ccc3C)nc(C)n2)ccn1 [Example 223]
100 to 500 nM | ≤ 100 nM | 1000 to 10000 nM | ≤ 100 nM | COC(C)(C)CCNC(=O)Nc1cnc(C)c(-c2nccc(-c3ccnc(NC(=O)C4CC4)c3)n2)c1 [Example 82]
≤ 100 nM | ≤ 100 nM | 100 to 500 nM | ≤ 100 nM | Cc1ccc(NC(=O)N2CCC(C(F)(F)F)C2)cc1-c1cccc(-c2cc(NC(=O)C3CC3)ncn2)c1 (stereo not shown) [Example 73]
≤ 100 nM | ≤ 100 nM | 1000 to 10000 nM | ≤ 100 nM | Cc1ncc(NC(=O)NCCC(C)(C)F)cc1-c1ccnc(-c2ccnc(NC(=O)C3CC3)c2)c1 [Example 75]
≤ 100 nM | ≤ 100 nM | 100 to 500 nM | ≤ 100 nM | COC(=O)Nc1cc(-c2cncc(-c3cc(NC(=O)N4CC[C@H](C(F)(F)F)C4)ccc3C)c2)ccn1 [Example 211]
> 1000 nM | 500 to 1000 nM | 1000 to 10000 nM | ≤ 100 nM | CNC(=O)c1cc(-c2cnnc(-c3cc(NC(=O)N4CCC(C(C)(C)C)C4)cnc3C)c2)ccn1 (stereo not shown) [Example 184]
≤ 100 nM | ≤ 100 nM | 100 to 500 nM | ≤ 100 nM | Cc1ccc(NC(=O)N2CC[C@@H](C(C)C)C2)cc1-c1cncc(-c2cc(NC(=O)C3CC3)ncn2)c1 [Example 217]
≤ 100 nM | ≤ 100 nM | 100 to 500 nM | ≤ 100 nM | Cc1ccc(NC(=O)N2CC[C@H](C(F)(F)F)C2)cc1-c1cncc(-c2ccnc(NC(=O)C3CC3)c2)c1 [Example 197]
≤ 100 nM | ≤ 100 nM | 500 to 1000 nM | ≤ 100 nM | Cc1ccc(NC(=O)N2CC[C@@H](C(F)(F)F)C2)cc1-c1cncc(-c2ccnc(NC(=O)C3CC3)c2)c1 [Example 196]
≤ 100 nM | ≤ 100 nM | 100 to 500 nM | ≤ 100 nM | Cc1ccc(NC(=O)N2CC[C@@H](C(F)(F)F)C2)cc1-c1cccc(-c2cc(NC(=O)C3CC3)ncn2)c1 [Example 201]
100 to 500 nM | ≤ 100 nM | 100 to 500 nM | ≤ 100 nM | COC(=O)Nc1cc(-c2cnnc(-c3cc(NC(=O)N4CCC(C(C)(C)C)C4)ccc3C)c2)ccn1 (stereo not shown) [Example 185]
> 1000 nM | 500 to 1000 nM | 1000 to 10000 nM | ≤ 100 nM | CNC(=O)c1cc(-c2cnnc(-c3cc(NC(=O)N4CCC5(CC5)C4)ccc3C)c2)ccn1 [Example 178]
